# Measurements reported in patent US6566397B2, “Acyclic isoprenoid ether derivatives as chemotherapeutics” (Wisconsin Alumni Research Foundation, priority 2000, dated 2003).
# Like-named read-outs stand apart in the source and are kept apart here.
# Columns and labels:
# [1] = Screening of acyclic isoprenoid esters for tumor-suppressive activity in vitro; type: cell-based
# Description: (§1) We synthesized and tested a series of esters formed between acyclic isoprenoid alcohols (geraniol, farnesol, nerol, citronellol) and diverse acids (proprionate, isobutyrate, formate, butyrate, caprylate, isovalerate, benzoate, tiglate, anthranilate). […] See Mo, et al. Cancer Letters 157:145-153, 2000 (incorporated by reference).
# [2] = test system: Murine B16 F10 melanoma cells; assay: Growth of murine B16 F10 melanoma cells in monolayer culture, viable cell count by hemocytometer, photomicrographs; type: cell-based; conditions: for apoptosis: 5 μmol/L, B16 melanoma cells, photomicrographs; for IC50: read-out: IC50, inhibition of net increase in cell count
# Protocol: Murine B16 F10 melanoma cells (He, L., et al., supra, 1997) were grown in monolayer culture (35×10 mm tissue culture dishes) in 3 ml RPMI 1640 medium (Sigma Biosciences, St. Louis, Mo.) supplemented with 10% fetal bovine serum (FBS, Sigma Biosciences) and 2% penicillin/streptomycin (Penicillin-Streptomycin Liquid, 1×10^7 units penicilin and 1×10^7 μg streptomycin/L of 0.85% saline, GIBCO BRL, Grand Island, N.Y.). Cultures, seeded with 3.3×10^4 cells/mL, were incubated for 24 hours at 37° C. in a humidified atmosphere of 5% CO2. The medium was decanted and replaced with fresh medium containing the test agents and incubations were continued for 48 hours. M363 and M364 were dissolved in ethanol, and lovastatin (Mevinolin, Sigma) in chloroform. […] The medium and detached (apoptotic) cells were decanted, the monolayer was washed twice with Hanks' Balanced Salt Solution (HBSS, Sigma Biosciences) and then incubated with a trypsin-EDTA solution (Sigma Biosciences) at 37° C. for 2 minutes. Trypsin was inactivated by suspending the cells in medium containing 10% FBS. The trypsinized cells were harvested by centrifugation (250×g) and re-suspended in HBSS. Viable cells, cells that excluded 0.4% trypan blue (GIBCO BRL), were counted with a hemocytometer; 0-time (24-h) cell counts were deducted from final cell counts to provide an estimate of the net increase in cell number.
# Photomicrographs (100×, 200× and 400×) of representative fields of cultures of B16 melanoma cells were made with a Labopot-2 microscope (Nikon, Japan) equipped with a SenSys digital camera (Photometrics Tucson, Ariz.) and image-acquisition software (MetaMorph Imaging Systems, Universal Imaging Corporation, West Chester, Pa.).
# (§2) The IC50 value represents the concentration of an isoprenoid required to inhibit the net increase in cell count by 50% at a time point within the linear growth period plotted for control cells. We determined the IC50 value by plotting cell number against isoprenoid concentration.
# [3] = test system: Human HL-60 acute promyelocytic leukemia cells; assay: Growth of human HL-60 leukemia cells in suspension culture, viable cell count by hemocytometer; type: cell-based; conditions: human HL-60 promyelocytic leukemia cells, 24 hours; read-out: IC50, inhibition of net increase in cell count
# Protocol: Human HL-60 acute promyelocytic leukemia cells (CCL-240, ATCC) were grown in suspension culture (25 cm^2 flasks) in 8 mL RPMI 1640 medium with 20% FBS and 2% penicillin/streptomycin. Cultures, seeded with 1.25×10^8 cells/L, were incubated with test agents for 24 hours at 37° C. in a humidified atmosphere of 5% CO2. The cells were then collected by centrifugation (250×g) and re-suspended in HBSS. Viable cells, cells that excluded 0.4% trypan blue, were counted with a hemocytometer; 0-time (seeding) cell counts were deducted from final cell counts to provide an estimate of the net increase in cell number.
# as §2
# implanted B16 melanomas [4] = conditions: cited from earlier work
# [5] = test system: Murine B16(F10) melanoma cells; assay: CellTiter 96 Aqueous One Solution Cell Proliferation Assay; type: cell-based; conditions: 40 hour growth of B16 melanoma cells, 1000 cells/well; read-out: IC50, net absorbance at 490 nm
# Protocol: Murine B16(F10) melanoma cells were grown in monolayer culture (96-well tissue culture plate, Fisher Scientific) in 0.1 mL of RPMI 1640 medium (Sigma) supplemented with 10% fetal bovine serum (Sigma) and 80 mg/L of gentamycin (Sigma). Cultures were seeded in triplicate (0 to 2450 cells/well with an increment of 350 cells) and incubated for 24 hours or 64 hours at 37° C. in a humidified atmosphere of 5% CO2. At 24 hours the medium was decanted from each well and replaced with fresh medium. Cell populations of all wells were determined at either 24 hours (0 time, 3 wells) or 64 hours (40 hours, all other wells) by adding 20 μl of CellTiter 96® Aqueous One Solution (Promega, Madison, Wis.) to each well; the plate was held in dart at 37° C. for 2 hours and then read at 490 nm with a SPECTRAmax® 190 multi-plate reader with SOFTmax® PRO (Molecular Devices, Sunnyvale, Calif.). The net absorbance, the difference between the 0 time and 40 hours values, plotted on cell inoculation density is linear to 2000 cells/well (FIG. 6). We then applied this optical method to the estimation of the IC50 for M364.
# Plates seeded with 1000 cells/well, the midpoint of cell inoculation density (FIG. 6), were cultured as described above. The medium added at 24 hours (0 time) to experimental wells contained 0-10 μmol/L M364 ([4-(3,7,11-trimethyl-2,6,10-dodecatrienyloxy]-phenyl acetate).
# [6] = M364 dietary toxicity study in mice; type: in vivo, C57BL6 female mice
# Protocol: M364 toxicity and efficacy studies are in progress. Weanling C57BL6 female mice (Harlan Sprague Dawley, Madison, Wis.) are housed in groups of five to six on Cellu-Dri bedding (Waldschmidt & Sons, Inc., Madison, Wis.) in stainless steel cages and maintained at 25° C. with a 12-hour light:dark cycle. Three groups of mice (11/group) are being fed AIN-93G diet supplemented with 0 (A, control), 1 (B) and 10 (C) mmol M364/kg diet. Food intakes for mice are recorded daily and mice are weighed on alternate days. Results to date are mixed. […] As a consequence, the body weight of these mice decreased from 13.6 to 11.7 g; on removing the agent (M364) from the diet the mice rapidly regained body weight.
# [7] = test system: murine B16 melanoma cells
# [8] = test system: pancreatic tumors implanted in Syrian Golden hamsters; conditions: 90 mmol/kg diet; cited from earlier work
# implanted B16 melanomas [9] = assay: Growth of implanted B16 melanomas, agent in diet; type: in vivo
# Description: as §1
# We note that the farnesyl moiety of the test agent comprised trans, trans and cis, trans isomers. […] The prospect of a chemotherapeutic application of […] is dimmed by findings that its very potent tumor-suppressive action is markedly attenuated by […], an essential dietary constituent (Qureshi, A., et al., J. Nutr. 126:389-394, 1996).
# [10] = murine melanoma B16 cells, 48 hours, hemocytometer
smiles,measurement,setting,value
C/C=C(\C)C(=O)OCC=C(C)CCC=C(C)CCC=C(C)C [farnesyl tiglate],tumor-suppressive activity in vitro,[1],significant tumor-suppressive activity
"CC(=O)Oc1ccc(OCC=C(C)CCC=C(C)C)cc1 [M363, [4-(3,7-dimethyl-2,6-octadienyloxy]-phenyl acetate]",apoptosis,[2],initiated apoptosis
same,IC50,[2]; [10],5.1 ± 0.8 µM
same,IC50,[3],58.6 ± 2.3 µM
CC(C)=CCC/C(C)=C/COC(=O)c1ccccc1N [geranyl anthranilate],tumor-suppressive activity in vitro,[1],significant tumor-suppressive activity
CC(C)=CCC/C(C)=C/COC(=O)c1ccccc1 [geranyl benzoate],tumor-suppressive activity in vitro,[1],significant tumor-suppressive activity
CC(C)=CCC/C(C)=C/CC/C(C)=C/CC[C@]1(C)CCc2cc(O)c(C)c(C)c2O1 [γ-tocotrienol],growth of implanted B16 melanomas,implanted B16 melanomas [4]; 0.116 mmol/kg diet,suppressed the growth
same,efficacy in suppressing growth of implanted melanomas relative to farnesol,implanted B16 melanomas [4]; <1 mmol/kg diet,~100 ×
"CC(=O)Oc1ccc(OCC=C(C)CCC=C(C)CCC=C(C)C)cc1 [M364, [4-(3,7,11-trimethyl-2,6,10-dodecatrienyloxy]-phenyl acetate]",apoptosis,[2],initiated apoptosis
same,suppression of cell growth,"[2]; M364 1 μmol/L, B16 cells",45%
same,IC50,[2]; [10],2 ± 0.6 µM
same,IC50,[3],4.9 ± 3.7 µM
same,IC50,[5],2.2 µM
same,body weight and general appearance,[6]; 1 mmol M364/kg diet,match the controls
same,general condition of mice,[6]; 10 mmol M364/kg diet,remained healthy and active
same,food intake,"[6]; 10 mmol M364/kg diet, 6 day exposure",decreased
same,body weight after exposure to diet,"[6]; 10 mmol M364/kg diet, 6 day exposure, decreased from 13.6 g, regained on removing agent",11.7 g
same,increase in proportion of cells in G1,[7]; M364 1 μmol/L,33%
C/C=C(\C)C(=O)OC/C=C(\C)CCC=C(C)C [geranyl tiglate],tumor-suppressive activity in vitro,[1],significant tumor-suppressive activity
CC(C)=CCCC(C)=CCCC(C)=CCO [farnesol],growth of implanted pancreatic tumors,[8],suppressed the growth
CC[C@H](C)C(=O)O[C@H]1C[C@@H](C)C=C2C=C[C@H](C)[C@H](CC[C@@H]3C[C@@H](O)CC(=O)O3)[C@H]21 [lovastatin],suppression of cell growth,"[2]; lovastatin 0.75 μmol/L, B16 cells",25%
same,increase in portion of cells in G1,[7]; lovastatin 0.75 μmol/L,33%
CC(C)=CCCC(C)=CCCC(C)=CCOC(=O)c1ccccc1 [farnesyl benzoate],tumor-suppressive activity in vitro,[1],significant tumor-suppressive activity
CC(C)=CCCC(C)=CCCC(C)=CCOC(=O)c1ccccc1N [farnesyl anthranilate],morphological changes of cells,"[2]; 100 μmol/L, B16 cells, 400× photomicrograph FIG. 4F",morphological changes similar to those attained with 10 μmol M364
same,IC50,"[2]; Mus musculus, 48 h",45 ± 6 µM
same,IC50,[3],80 ± 10 µM
same,growth of implanted B16 melanomas,implanted B16 melanomas [9]; 1.5 mmol/kg diet,substantially suppressed the growth
same,effect of dietary α-tocopherol on the agent's action,implanted B16 melanomas [9]; dietary α-tocopherol,did not compromise
same,tumor-suppressive activity in vitro,[1],significant tumor-suppressive activity
